{"source": "patent EP2814319B1", "about": "“ANTIMICROBIAL COMPOSITION CONTAINING PHOTOCHEMICALLY STABLE SILVER COMPLEXES” (NM Tech Nanomaterials and Microdevices Technology Ltd., priority 2012, dated 2013)", "key": {"[1]": {"test": "Photochemical stability of aqueous solutions under ambient light exposure", "format": "physicochemical", "procedure": "The observation that, after a 12 month period, in the presence of a cationic surfactant no precipitation and no formation of metallic Silver occur, confirms the relevant role of the cationic surfactants in determining the stabilization in solution of the neutral complex and the role of the ligand L in stabilizing photochemically the Ag^+ ion.\n(§1) The neutral complex Ag-L with L = 4-mercaptophenilboronic acid was prepared by adding stoichiometric amounts of 4-mercaptophenylboronic acid to an aqueous solution of a silver salt, such as silver nitrate. […] The aqueous solution of the complex was stabilized by addition of Benzalkonium chloride up to reach a concentration of about 2 x 10^-2 M, which corresponds to the double of its critical micelle concentration."}, "[2]": {"test": "Solubility in water", "format": "physicochemical", "settings": "without surfactant", "procedure": "The complex of formula Ag-L can be prepared by adding stoichiometric amounts of 4-mercaptophenylboronic acid to an aqueous solution of a silver salt, such as silver nitrate. […] This complex can be solubilized in aqueous solution by addition of a cationic surfactant.\nas §1"}, "[3]": {"tested_on": "Staphylococcus aureus (ATCC- 6538), Pseudomonas aeruginosa (ATCC - 15442)", "test": "Quantitative suspension test for bactericidal activity (UNI EN 1272:2009)", "format": "cell-based", "procedure": "The bactericidal activity was tested on freshly prepared aqueous solutions of the neutral Ag-L complex where the ligand L coordinated to the silver ion is 4-mercaptophenilboronic acid .\nAdditional tests were carried out on aqueous solutions containing the neutral Silver Ag-L complex and different cationic surfactants and, for purpose of comparison, on aqueous solutions containing only the cationic surfactants at the same concentration levels. It is in fact known that the cationic surfactants used for the purposes of the invention are endowed with antimicrobic activity on their own.\nThe bactericidal activity tests were carried out according to UNI EN 1272:2009 and UNI EN 13697:2001 standards, which make reference to chemical disinfectants and antiseptics, by using the following test organism: Staphylococcus aureus (ATCC- 6538), as representative of Gram-positive bacteria and Pseudomonas aeruginosa (ATCC - 15442), as representative of Gram-negative bacteria.\nOn such solutions it was in fact observed a maximum reduction of the bacterial count of ca 6-7 log."}, "[4]": {"settings": "treating burns; decreased from 60%; cited from earlier work"}, "[5]": {"tested_on": "Staphylococcus epidermidis", "settings": "cited from earlier work"}}, "data": [{"smiles": "OB(O)c1ccc([S][Ag])cc1", "note": "[AgL]", "values": [{"measurement": "change in color or composition", "setting": "[1]; aqueous solution stabilized with Benzalkonium chloride about 2 x 10^-2 M, 12 months ambient light exposure", "value": "did not show any change in color or composition"}, {"measurement": "solubility in water", "setting": "[2]", "value": "only partly soluble in water"}, {"measurement": "log reduction at 330 µM", "setting": "[3]; Staphylococcus aureus, 0.5 h, concentration of the order of 3.3 x 10^-4 M in water, 30 min of contact, read-out: log reduction of bacterial count", "value": "2 to 3"}]}, {"smiles": "O=[N+]([O-])[O-].[Ag+]", "note": "[Silver Nitrate, silver nitrate]", "values": [{"measurement": "formation of Ag° precipitate", "setting": "[1]; aqueous solution, comparable conditions (ambient light exposure)", "value": "formation of a black Ag° precipitate after few minutes"}, {"measurement": "log reduction of bacterial count", "setting": "[3]; concentration of the order of 3.3 x 10^-4 M in water, 30 min of contact", "value": "2-3 log"}, {"measurement": "antimicrobial activity after exposure to ambient light", "setting": "[3]; solution of concentration comparable to 3.3 x 10^-4 M", "value": "lose the antimicrobial activity after exposure to ambient light"}, {"measurement": "number of deaths that were a result of sepsis", "setting": "[4]", "value": 28, "unit": "%"}]}, {"smiles": "[H]/N=C(\\N/C(=N/[H])NCCCCCCNC(=N)NC(=N)Nc1ccc(Cl)cc1)Nc1ccc(Cl)cc1", "note": "[chlorhexidine]", "values": [{"measurement": "development of resistance", "setting": "[5]", "value": "no evidence of resistance"}]}]}
